Test system: Chemotherapeutic agent-caused constipation models of Balb/c mice
Assay: Relieving effect on constipation caused by a chemotherapeutic agent (Examples 202-364)
Format: in vivo
Source text: Construction of mouse animal models: Chemotherapeutic agent-caused constipation models of Balb/c mice were constructed according to the administration mode and frequency of the chemotherapeutic agent as shown in Table 4. […] Thus, chemotherapeutic agent-caused constipation models of mice are very good models to mimic constipation caused by the chemotherapeutic agent.
Balb/c mice were fed for 1 week, and then divided into groups. The experiment was divided into a control group, a chemotherapeutic agent group, and a group of the compound as shown in Formula I, each of which comprised 10 mice, to perform the administration experiment, for which the administration dosage, mode, time and frequency were shown in Table 4. The control group: being injected or intragastrically administered with the same solvent as that used in the group of the compound as shown in Formula I (the administration mode and time were shown in Table 4), and then being injected or intragastrically administered with the same solvent as that used in the chemotherapeutic agent group (the administration mode was shown in Table 4); the chemotherapeutic agent group: being injected or intragastrically administered with the same solvent as that used in the group of the compound as shown in Formula I (the administration mode and time was shown in Table 4), and then being injected or intragastrically administered with the chemotherapeutic agent (the type, administration mode and dosage were shown in Table 4); the group of the compound as shown in Formula I: being injected or intragastrically administered with the compound as shown in Formula I (the administration mode and time was shown in Table 4), and then being administered with the chemotherapeutic agent (the administration mode and dosage were shown in Table 4).
The feces reduction rate was calculated with reference to the method of Ji Eun Kim (Lab Anim Res. 2016 December; 32(4): 231-240.). Feces reduction rate (%)=(the control group−the chemotherapeutic agent group or the group of the compound as shown in Formula I)/the control group*100%
It is regarded as effective remission when the feces reduction rate of mice in the group of the compound as shown in Formula I is reduced compared with that in the chemotherapeutic agent group.
The feces amount of mice within 3 hours was observed and recorded every day. At the end of the experiment, the number of mice in the group of the compound as shown in Formula I whose feces reduction rate was lower than that of mice in the chemotherapeutic agent group was recorded. Table 4 lists various animal experiment combinations of chemotherapeutic agents and the compound as shown in Formula I, as well as the corresponding experimental results.

Which results are given for CN1CCN(c2ccc(Nc3ncc4cc5n(c4n3)C3(CCCCC3)CNC5=O)nc2)CC1 [Compound I, Trilaciclib]?
Relative remission rate (%) (Example 214, Fluorouracil (5-Fu) intraperitoneal injection 175 mg/kg single, compound intravenous injection 12.5 mg/kg, frequency 8, 12 h before chemotherapeutic agent, cycle 10 days): 20%; Relative remission rate (%) (Example 215, Fluorouracil (5-Fu) intraperitoneal injection 175 mg/kg single, compound intravenous injection 25 mg/kg, frequency 8, 12 h before chemotherapeutic agent, cycle 10 days): 30%; Relative remission rate (%) (Example 216, Fluorouracil (5-Fu) intraperitoneal injection 175 mg/kg single, compound intravenous injection 50 mg/kg, frequency 8, 12 h before chemotherapeutic agent, cycle 10 days): 30%; Relative remission rate (%) (Example 217, Fluorouracil (5-Fu) intraperitoneal injection 175 mg/kg single, compound intravenous injection 100 mg/kg, frequency 8, 12 h before chemotherapeutic agent, cycle 10 days): 40%; Relative remission rate (%) (Example 218, Fluorouracil (5-Fu) intraperitoneal injection 175 mg/kg single, compound intravenous injection 150 mg/kg, frequency 8, 12 h before chemotherapeutic agent, cycle 10 days): 60%; Relative remission rate (%) (Example 219, Fluorouracil (5-Fu) intraperitoneal injection 175 mg/kg single, compound intravenous injection 240 mg/kg, frequency 8, 12 h before chemotherapeutic agent, cycle 10 days): 60%; Relative remission rate (%) (Example 220, Fluorouracil (5-Fu) intraperitoneal injection 175 mg/kg single, compound intravenous injection 100 mg/kg, frequency 8, 13 h before chemotherapeutic agent, cycle 10 days): 40%; Relative remission rate (%) (Example 221, Fluorouracil (5-Fu) intraperitoneal injection 175 mg/kg single, compound intravenous injection 100 mg/kg, frequency 8, 14 h before chemotherapeutic agent, cycle 10 days): 40%; Relative remission rate (%) (Example 222, Fluorouracil (5-Fu) intraperitoneal injection 175 mg/kg single, compound intravenous injection 100 mg/kg, frequency 8, 16 h before chemotherapeutic agent, cycle 10 days): 50%; Relative remission rate (%) (Example 223, Fluorouracil (5-Fu) intraperitoneal injection 175 mg/kg single, compound intravenous injection 100 mg/kg, frequency 8, 18 h before chemotherapeutic agent, cycle 10 days): 60%; Relative remission rate (%) (Example 224, Fluorouracil (5-Fu) intraperitoneal injection 175 mg/kg single, compound intravenous injection 100 mg/kg, frequency 8, 20 h before chemotherapeutic agent, cycle 10 days): 60%; Relative remission rate (%) (Example 225, Fluorouracil (5-Fu) intraperitoneal injection 175 mg/kg single, compound intravenous injection 100 mg/kg, frequency 8, 22 h before chemotherapeutic agent, cycle 10 days): 30%; Relative remission rate (%) (Example 226, Fluorouracil (5-Fu) intraperitoneal injection 175 mg/kg single, compound intravenous injection 100 mg/kg, frequency 8, 24 h before chemotherapeutic agent, cycle 10 days): 30%; Relative remission rate (%) (Example 227, Fluorouracil (5-Fu) intraperitoneal injection 175 mg/kg single, compound intravenous injection 100 mg/kg, frequency 8, 48 h before chemotherapeutic agent, cycle 10 days): 0%; Relative remission rate (%) (Example 228, Fluorouracil (5-Fu) intravenous injection 250 mg/kg single, compound intraperitoneal injection 100 mg/kg single, 0.5 h before chemotherapeutic agent, cycle 10 days): 30%; Relative remission rate (%) (Example 229, Fluorouracil (5-Fu) intravenous injection 250 mg/kg single, compound intraperitoneal injection 100 mg/kg single, 1 h before chemotherapeutic agent, cycle 10 days): 40%; Relative remission rate (%) (Example 230, Fluorouracil (5-Fu) intravenous injection 250 mg/kg single, compound intraperitoneal injection 100 mg/kg single, 2 h before chemotherapeutic agent, cycle 10 days): 40%; Relative remission rate (%) (Example 231, Fluorouracil (5-Fu) intravenous injection 250 mg/kg single, compound intraperitoneal injection 100 mg/kg single, 4 h before chemotherapeutic agent, cycle 10 days): 60%; Relative remission rate (%) (Example 232, Fluorouracil (5-Fu) intravenous injection 250 mg/kg single, compound intraperitoneal injection 100 mg/kg single, 6 h before chemotherapeutic agent, cycle 10 days): 60%; Relative remission rate (%) (Example 233, Fluorouracil (5-Fu) intravenous injection 250 mg/kg single, compound intraperitoneal injection 100 mg/kg single, 8 h before chemotherapeutic agent, cycle 10 days): 50%; Relative remission rate (%) (Example 234, Fluorouracil (5-Fu) intravenous injection 250 mg/kg single, compound intraperitoneal injection 100 mg/kg single, 10 h before chemotherapeutic agent, cycle 10 days): 50%; Relative remission rate (%) (Example 235, Fluorouracil (5-Fu) intravenous injection 250 mg/kg single, compound intraperitoneal injection 100 mg/kg single, 12 h before chemotherapeutic agent, cycle 10 days): 70%; Relative remission rate (%) (Example 236, Fluorouracil (5-Fu) intravenous injection 250 mg/kg single, compound intraperitoneal injection 100 mg/kg single, 14 h before chemotherapeutic agent, cycle 10 days): 40%; Relative remission rate (%) (Example 237, Fluorouracil (5-Fu) intravenous injection 250 mg/kg single, compound intraperitoneal injection 100 mg/kg single, 16 h before chemotherapeutic agent, cycle 10 days): 40%; Relative remission rate (%) (Example 238, Fluorouracil (5-Fu) intravenous injection 250 mg/kg single, compound intraperitoneal injection 100 mg/kg single, 18 h before chemotherapeutic agent, cycle 10 days): 50%; Relative remission rate (%) (Example 239, Fluorouracil (5-Fu) intravenous injection 250 mg/kg single, compound intraperitoneal injection 100 mg/kg single, 20 h before chemotherapeutic agent, cycle 10 days): 50%; Relative remission rate (%) (Example 240, Fluorouracil (5-Fu) intravenous injection 250 mg/kg single, compound intraperitoneal injection 100 mg/kg single, 24 h before chemotherapeutic agent, cycle 10 days): 50%; Relative remission rate (%) (Example 287, Irinotecan (CPT-11) intraperitoneal injection 260 mg/kg single, compound intravenous injection 150 mg/kg single, 1 h before chemotherapeutic agent, cycle 8 days): 40%

Source: patent US20240285634A1, “COMPOUND AND METHOD FOR TREATING CHEMOTHERAPY-ASSOCIATED GASTROINTESTINAL SIDE EFFECTS” (ONQUALITY PHARMACEUTICALS CHINA LTD., priority 2021, published 2024)
